Measurements: patent publication US9079864B2, “Modulators of S1P receptors” (Allergan, Inc., priority 2010, dated 2015)

Target: T1, human S1P1 receptor (Homo sapiens, UniProt P21453)
T1 construct: expressed in transfected cells; membranes used
Assay: GTP γ35S binding assay for S1P1 activity
Format: biochemical
Set-up: % stimulation: reference not given here
Conditions: for % stimulation: S1P1 receptor, agonist-induced; for EC50: membranes of cells stably expressing S1P1 receptor, agonist mode, 0.08 to 5,000 nM
Method: Novel compounds were synthesized and tested for S1P1 activity using the GTP γ^35S binding assay. These compounds may be assessed for their ability to activate or block activation of the human S1P1 receptor in cells stably expressing the S1P1 receptor. GTP γ^35S binding was measured in the medium containing (mM) HEPES 25, pH 7.4, MgCl2 10, NaCl 100, dithiothreitol 0.5, digitonin 0.003%, 0.2 nM GTP γ^35S, and 5 μg membrane protein in a volume of 150 μl. Test compounds were included in the concentration range from 0.08 to 5,000 nM unless indicated otherwise. Membranes were incubated with 100 μM 5′-adenylylimmidodiphosphate for 30 min, and subsequently with 10 μM GDP for 10 min on ice. Drug solutions and membrane were mixed, and then reactions were initiated by adding GTP γ^35S and continued for 30 min at 25° C. Reaction mixtures were filtered over Whatman GF/B filters under vacuum, and washed three times with 3 mL of ice-cold buffer (HEPES 25, pH 7.4, MgCl2 10 and NaCl 100). Filters were dried and mixed with scintillant, and counted for ^35S activity using a β-counter. Agonist-induced GTP γ^35S binding was obtained by subtracting that in the absence of agonist. In case of antagonist assay, the reaction mixture contained 10 nM S1P in the presence of test antagonist at concentrations ranging from 0.08 to 5000 nM.

T1 sequence (P21453 whole entry): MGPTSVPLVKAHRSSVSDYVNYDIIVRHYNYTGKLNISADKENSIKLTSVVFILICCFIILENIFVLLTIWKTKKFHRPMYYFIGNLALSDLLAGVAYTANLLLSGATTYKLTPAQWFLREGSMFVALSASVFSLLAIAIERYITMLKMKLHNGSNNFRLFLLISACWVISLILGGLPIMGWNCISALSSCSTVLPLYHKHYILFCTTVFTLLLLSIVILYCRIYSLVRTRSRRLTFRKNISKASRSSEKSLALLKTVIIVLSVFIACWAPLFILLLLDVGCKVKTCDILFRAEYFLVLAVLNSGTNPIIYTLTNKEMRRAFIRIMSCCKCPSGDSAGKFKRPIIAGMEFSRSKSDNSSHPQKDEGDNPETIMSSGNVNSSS

SMILES | % stimulation | EC50
CC(C)Oc1ccc(C#Cc2ccc(Cn3ccnc3)cc2)cc1C#N [Compound 1, 5-{[4-(1H-imidazol-1-ylmethyl)phenyl]ethynyl}-2-isopropoxybenzonitrile] | 67% | 6.3 nM
CC(C)Oc1ccc(C#Cc2ccc(CN3CCCC3)cc2)cc1C#N [Compound 2, 2-isopropoxy-5-{[4-(pyrrolidin-1-ylmethyl)phenyl]ethynyl}benzonitrile] | 110% | 365 nM
Cc1cc(Cn2ccnc2)ccc1C#Cc1ccc(OC(C)C)c(C#N)c1 [Compound 4, 5-{[4-(1H-imidazol-1-ylmethyl)-2-methylphenyl]ethynyl}-2-isopropoxybenzonitrile] | 70% | 3.1 nM

Continued, values first:

% stimulation | EC50 | SMILES
81% | 14.7 nM | CC(C)Oc1ccc(C#Cc2ccc(Cn3ccnc3)cc2)cc1Cl [Compound 3, 1-{4-[(3-chloro-4-isopropoxyphenyl)ethynyl]-benzyl}-1H-imidazole]
108% | 7.52 nM | CC(C)Oc1ccc(C#Cc2ccc(Cn3ccnc3)cc2Cl)cc1C#N [Compound 5, 5-{[2-chloro-4-(1H-imidazol-1-ylmethyl)phenyl]ethynyl}-2-isopropoxybenzonitrile]
